Assay results taken from patent US7557110B2, “Pyrazolo[1,5-A] pyrimidine derivatives” (Teijin Pharma Limited, priority 2003, dated 2009).

Tests used:
[1] = molecular target: MAPKAP-K2 (Homo sapiens, UniProt P49137); experiment: MAPKAP-K2 enzyme activity inhibition (33P-ATP filter plate kinase assay); type: biochemical; conditions: MAPKAP-K2 inhibitory activity; assays conducted at typically 1-100 μM; note: key: +: active; ++: more active; +++: very active
Experimental: [General Procedure for Measurement of MAPKAP-K2 Enzyme Activity Inhibition]
After conducting the reaction for 30 minutes at room temperature, an equivalent volume of a 200 mM phosphoric acid solution was added to suspend the reaction, and 90 μL of the reaction product was adsorbed onto a MultiScreen PH plate (Millipore) and rinsed with a 100 mM phosphoric acid solution. After drying the plate, 30 μL of MicroScint-O (Packard BioScience) was added, and the cpm was measured with a scintillation counter to determine the inhibiting activity. Substrate peptide is […]

[2] = molecular target: CDK-2 (Homo sapiens, UniProt P24941); experiment: CDK-2 enzyme activity inhibition (33P-ATP filter plate kinase assay); type: biochemical; conditions: read-out: CDK-2 inhibition IC50
Excerpt: [General Procedure for Measurement of CDK-2 Enzyme Activity Inhibition]

MAPKAP-K2, sequence (P49137 whole entry): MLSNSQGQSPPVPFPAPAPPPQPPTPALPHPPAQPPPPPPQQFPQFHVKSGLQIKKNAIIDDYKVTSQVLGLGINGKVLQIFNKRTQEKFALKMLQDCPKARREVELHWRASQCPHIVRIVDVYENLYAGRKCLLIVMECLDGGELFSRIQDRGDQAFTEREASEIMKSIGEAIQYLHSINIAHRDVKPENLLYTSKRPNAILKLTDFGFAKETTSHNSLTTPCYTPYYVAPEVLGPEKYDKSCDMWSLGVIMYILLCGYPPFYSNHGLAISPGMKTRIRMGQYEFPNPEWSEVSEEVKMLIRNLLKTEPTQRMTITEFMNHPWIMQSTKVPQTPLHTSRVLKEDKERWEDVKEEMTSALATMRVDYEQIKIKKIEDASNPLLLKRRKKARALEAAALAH

Row | Structure (SMILES) | activity (efficacy against MAPKAP-K2) [1] | IC50 [2] [µM]
1 | Cc1c(N[C@H]2CC[C@H](N)CC2)nc2ccnn2c1Nc1ccc(OCC2CCCCC2)cc1 [Compound 237] | ++ | < 100
2 | Cc1c(N[C@H]2CC[C@H](N)CC2)nc2ccnn2c1Nc1cccc(OCc2ccccc2)c1 [Compound 243] | ++ | < 100
3 | Cc1c(N[C@H]2CC[C@H](N)CC2)nc2ccnn2c1Nc1cccc(OCc2cccc(Cl)c2)c1 [Compound 247] | ++ | < 100
4 | Cc1c(N[C@H]2CC[C@H](N)CC2)nc2ccnn2c1Nc1cccc(OCc2ccc(Cl)cc2)c1 [Compound 248] | ++ | < 100
5 | Cc1c(NC2CCC(N)CC2)nc2ccnn2c1Nc1ccc(OCC2CCCCN2)cc1 (stereo not shown) [Compound 251] | +++ | < 100
6 | Cc1c(NC2CCC(N)CC2)nc2ccnn2c1Nc1ccc(OCC2CCCO2)cc1 (stereo not shown) [Compound 256] | +++ | < 100
7 | Cc1c(N[C@H]2CC[C@H](N)CC2)nc2ccnn2c1Nc1cccc(OCc2cccnc2)c1 [Compound 274] | ++ | < 100
8 | Cc1c(N[C@H]2CC[C@H](N)CC2)nc2ccnn2c1Nc1ccc(-c2ccccc2)cc1 [Compound 284, {5-[(trans-4-aminocyclohexyl)amino]-6-methyl(pyrazolo[1,5-a]pyrimidin-7-yl)}(4-phenylphenyl)amine] | +++ | < 100
9 | COc1ccccc1-c1ccc(Nc2c(C)c(N[C@H]3CC[C@H](N)CC3)nc3ccnn23)cc1 [Compound 287] | +++ | < 100
10 | Cc1c(N[C@H]2CC[C@H](N)CC2)nc2ccnn2c1Nc1ccc(-c2cccc(N)c2)cc1 [Compound 288] | +++ | < 100
11 | Cc1c(N[C@H]2CC[C@H](N)CC2)nc2ccnn2c1Nc1ccc(-c2cc3ccccc3s2)cc1 [Compound 289] | +++ | < 100
12 | Cc1c(N[C@H]2CC[C@H](N)CC2)nc2ccnn2c1Nc1ccc(-c2cc3ccccc3o2)cc1 [Compound 290] | +++ | < 100
13 | Cc1c(N[C@H]2CC[C@H](N)CC2)nc2ccnn2c1Nc1ccc(-c2csc3ccccc23)cc1 [Compound 292] | ++ | < 100
14 | N[C@H]1CC[C@H](Nc2cc(NCc3cccc(Cl)c3)n3ncc(I)c3n2)CC1 [Compound 297, {5-[(trans-4-aminocyclohexyl)amino]-3-iodo(pyrazolo[1,5-a]pyrimidin-7-yl)}[(3-chlorophenyl)methyl]amine] | ++ | < 100
15 | Cc1c(N[C@H]2CC[C@H](N)CC2)nc2ccnn2c1Nc1ccc(-c2ccncc2)cc1 [Compound 299] | +++ | < 100
16 | Cc1c(N[C@H]2CC[C@H](N)CC2)nc2ccnn2c1Nc1ccc(-c2cccnc2)cc1 [Compound 300] | +++ | < 100
17 | Cc1c(N[C@H]2CC[C@H](N)CC2)nc2ccnn2c1Nc1ccc(-c2ccc(N)cc2)cc1 [Compound 301] | +++ | < 100
18 | Cc1c(N[C@H]2CC[C@H](N)CC2)nc2ccnn2c1Nc1ccc(-c2ccc(F)cc2)cc1 [Compound 303] | +++ | < 100
19 | Cc1c(N[C@H]2CC[C@H](N)CC2)nc2ccnn2c1Nc1ccc(-c2cccc(F)c2)cc1 [Compound 304] | +++ | < 100
20 | Cc1c(N[C@H]2CC[C@H](N)CC2)nc2ccnn2c1Nc1ccc(-c2ccccc2F)cc1 [Compound 305] | +++ | < 100
21 | Cc1c(N[C@H]2CC[C@H](N)CC2)nc2ccnn2c1Nc1ccc(-c2ccc(O)cc2)cc1 [Compound 306] | +++ | < 100
22 | Cc1c(N[C@H]2CC[C@H](N)CC2)nc2ccnn2c1Nc1ccc(-c2cccc(O)c2)cc1 [Compound 307] | +++ | < 100
23 | Cc1c(N[C@H]2CC[C@H](N)CC2)nc2ccnn2c1Nc1ccc(-c2ccoc2)cc1 [Compound 309] | +++ | < 100
24 | Cc1c(N[C@H]2CC[C@H](N)CC2)nc2ccnn2c1Nc1ccc(-c2ccsc2C=O)cc1 [Compound 310] | ++ | < 100
25 | Cc1c(N[C@H]2CC[C@H](N)CC2)nc2ccnn2c1Nc1ccc(-c2cncnc2)cc1 [Compound 311] | +++ | < 100
26 | Cc1c(N[C@H]2CC[C@H](N)CC2)nc2ccnn2c1Nc1ccc(-c2ccc(Cl)cc2)cc1 [Compound 312] | +++ | < 100

More lines, now with the values ahead:

Row | activity (efficacy against MAPKAP-K2) [1] | IC50 [2] [µM] | Structure (SMILES)
27 | +++ | < 100 | Cc1c(N[C@H]2CC[C@H](N)CC2)nc2ccnn2c1Nc1ccc(OCc2ccc(Cl)cc2)cc1 [Compound 211]
28 | +++ | < 100 | Cc1c(N[C@H]2CC[C@H](N)CC2)nc2ccnn2c1Nc1ccc(OCc2ccccc2Cl)cc1 [Compound 213]
29 | ++ | < 100 | Cc1c(N[C@H]2CC[C@H](N)CC2)nc2ccnn2c1Nc1ccc(OCCC2CCCCC2)cc1 [Compound 215]
30 | +++ | < 100 | Cc1c(N[C@H]2CC[C@H](N)CC2)nc2ccnn2c1Nc1ccc(OC2CCCC2)cc1 [Compound 216]
31 | ++ | < 100 | Cc1c(N[C@H]2CC[C@H](N)CC2)nc2ccnn2c1Nc1ccc(OC2CCN(C)CC2)cc1 [Compound 217]
32 | +++ | < 100 | Cc1c(N[C@H]2CC[C@H](N)CC2)nc2ccnn2c1Nc1ccc(OC2CCOCC2)cc1 [Compound 219]
33 | +++ | < 100 | Cc1c(N[C@H]2CC[C@H](N)CC2)nc2ccnn2c1Nc1ccc(OCCN2CCOCC2)cc1 [Compound 221]
34 | +++ | < 100 | Cc1c(N[C@H]2CC[C@H](N)CC2)nc2ccnn2c1Nc1ccc(OCc2cccnc2)cc1 [Compound 222]
35 | +++ | < 100 | Cc1c(N[C@H]2CC[C@H](N)CC2)nc2ccnn2c1Nc1ccc(OCCN2CCCCC2)cc1 [Compound 223]
36 | +++ | < 100 | Cc1c(N[C@H]2CC[C@H](N)CC2)nc2ccnn2c1Nc1ccc(OCc2ccccn2)cc1 [Compound 224]
37 | +++ | < 100 | Cc1c(N[C@H]2CC[C@H](N)CC2)nc2ccnn2c1Nc1ccc(OCCc2ccccn2)cc1 [Compound 225]
38 | +++ | < 100 | Cc1c(NC2CCC(N)CC2)nc2ccnn2c1Nc1ccc(OCC2CCCN(C)C2)cc1 (stereo not shown) [Compound 226]
39 | +++ | < 100 | Cc1c(N[C@H]2CC[C@H](N)CC2)nc2ccnn2c1Nc1ccc(OCCc2ccncc2)cc1 [Compound 228]
40 | +++ | < 100 | Cc1c(NC2CCC(N)CC2)nc2ccnn2c1Nc1ccc(OC2CCNC2)cc1 (stereo not shown) [Compound 229]
41 | ++ | < 100 | Cc1c(NC2CCC(N)CC2)nc2ccnn2c1Nc1ccc(OCCC2CCCCN2)cc1 (stereo not shown) [Compound 231]
